# Results reported in patent US20200261375A1, “Use Of (+)-2-Borneol In Preparation Of Drug For Promoting Upregulation Of Expression Of Sphingosine Kinase-1 And/Or BDNF” (SUZHOU PHARMAVAN CO, LTD., priority 2017, published 2020).
# Assays:
# Assay type in all cases: in vivo
# [1] = system: sphingosine kinase-1 (Sphk1); test: Rat model of focal cerebral ischemia-reperfusion (MCAO), genome-wide expression profiling of brain tissue around the infarct area: Sphk1; conditions: 2 mg/kg once by tail vein injection 2 hours after ischemia-reperfusion, brain tissue around the infarct area 48 hours after reperfusion, relative to the sham-operated group / model group
# Protocol: (§1) Rat model of focal cerebral ischemia-reperfusion A rat model of middle cerebral artery occlusion (MCAD)-induced cerebral ischemia-reperfusion was prepared by thread occlusion of the internal carotid artery. A drug was administered once by tail vein injection 2 hours after ischemia-reperfusion. One dose group was set for (+)-2-borneol, i.e. 2 mg/kg. 48 hours after the cerebral ischemia-reperfusion, about a soybean size of brain tissue around the infarct area was harvested, sent to CapitalBio Technology Inc., Beijing, and subjected to genome-wide expression profiling by using Affymetrix GeneChip Rat Genome 230 2.0 Array Affymetrix Rat (Latin: Rattus norvegicus) Genome 230 2.0 chip.
# [2] = system: brain-derived neurotrophic factor (BDNF); test: Rat model of focal cerebral ischemia-reperfusion (MCAO), genome-wide expression profiling of brain tissue around the infarct area: BDNF; conditions: 2 mg/kg once by tail vein injection 2 hours after ischemia-reperfusion, brain tissue around the infarct area 48 hours after reperfusion, relative to the sham-operated group
# Protocol: as §1
# [3] = system: mouse model of focal cerebral motor cortex ischemia; test: Mouse model of focal motor cortex ischemia (photochemical), grid test; conditions: 3.0, 1.5, 0.75 mg/kg tail vein injection, Day 14, 28, 42 after ischemic injury
# Protocol: (§2) Long-term pharmacodynamic assay of (+)-2-borneol in a mouse model of focal motor cortex ischemia A mouse model of focal cerebral motor cortex ischemia was induced by photochemical method. Three dose groups were set for (+)-2-borneol, i.e. 3.0, 1.5, 0.75 mg/kg, respectively. Edaravone at a dose of 9 mg/kg was used as a positive control. A drug was administered once by tail vein injection 2 hours after cortex ischemia, and then administered every 24 hours, for a total of 14 administrations. A grid test was used to determine respectively the failure rate of forelimb on Day 14, Day 28 and Day 42 after ischemic injury; and a cylinder test was used to determine the motor asymmetry index of the affected forelimb and the contralateral forelimb on Day 14, Day 28 and Day 42 after ischemic injury to determine its effect on motor function. After the behavior measurements, 5 animals were randomly selected from each group and killed, and the brain was harvested for Golgi staining to determine the neuronal survival and dendritic richness in the penumbra area.
# [4] = system: mouse model of focal cerebral motor cortex ischemia; test: Mouse model of focal motor cortex ischemia (photochemical), cylinder test; conditions: 3.0, 1.5, 0.75 mg/kg tail vein injection, 14 administrations, Day 14, 28, 42 after ischemic injury
# Protocol: as §2
# [5] = system: mouse model of focal cerebral motor cortex ischemia; test: Mouse model of focal motor cortex ischemia (photochemical), Golgi staining of brain; conditions: Golgi staining after the behavior measurements; 3.0, 1.5, 0.75 mg/kg tail vein injection, 14 administrations
# Protocol: as §2
structure (smiles),measurement,setting,value
CC1(C)[C@@H]2CC[C@@]1(C)[C@@H](O)C2 [(+)-2-borneol],sphingosine kinase-1 (Sphk1) expression up-regulated,[1],2.64 fold
same,brain-derived neurotrophic factor (BDNF) expression up-regulated,[2],2.67 fold
same,motor function of mice with photochemically induced injury,[3]; 14 administrations every 24 hours,significantly improve
same,failure rate of the left forelimb (affected side),"[3]; grid test, 14 administrations",significant decreases
same,asymmetry index of both forelimbs,[4],significant decreases
same,dendritic length around the ischemic area,[5],significant improvements
same,dendritic spine density around the ischemic area,[5],significant improvements
same,number of dendritic branches around the ischemic area,[5],significant improvements
